Data published in patent publication US20220362386A1, “LIQUID COMPOSITIONS COMPRISING A LEVODOPA AMINO ACID CONJUGATE AND USES THEREOF” (NeuroDerm, Ltd., priority 2019, published 2022).
Where a name gives a salt, the structure may show the parent alone. Read-outs that look alike come from different tables or passages of the source. Non-standard residues stand in square brackets, D forms with d. Residues, ends and D or L forms follow the SMILES beside them. Dopa = N[C@@H](Cc1ccc(O)c(O)c1)C(=O)O

How the values were obtained:
[1] = Human liver S9 stability test; assay type: in vitro ADME; details: substrate 10 μM, S9 protein 0.2 mg/mL; for Ke: slope of the percentage decrease of remaining compound, 0-60 minutes
Protocol: The stability of several LDAA compounds, in their TFA salt form, in human liver S9 was tested using commercially available liver S9. The substrate concentration was 10 μM, the S9 protein concentration was 0.2 mg/mL, and the incubation time 0, 5, 15, 30 and 60 minutes.
The results are described in Table 18, wherein the results describe the Ke, i.e., the slope of the percentage decrease of the remaining amount of the compound, measured at each of the above time points, such that the higher the Ke the faster the metabolism.

[2] = Protein binding, equilibrium dialysis method; assay type: in vitro ADME, human; details: human, human plasma, pH 7.4, 1.0E-05M
Protocol: (§1) The protein binding values of various LDAA compounds in their TFA salt form (10^−5M) were tested in human plasma. The equilibrium dialysis technique was used to separate the fraction of the test compound that was unbound from the fraction of the test compound that bound to proteins during the test. The test was performed on 96-well plates in a dialysis block constructed from Teflon™.
(§2) The protein containing matrix used was human plasma, wherein the assay matrix was human serum albumin and alpha-1 acid glycoprotein. The protein matrix was spiked with each test compound at 10 μM (by default, n=2) with a final DMSO concentration of 1%. The dialysate compartment is loaded with phosphate buffered saline (PBS, pH 7.4), and the sample compartment was loaded with an equal volume of the spiked protein matrix. The dialysis plate was then sealed and incubated at 37° C. for 4 h.
(§3) Following the incubation, samples were taken from each compartment, diluted with PBS followed by the addition of acetonitrile, after which the samples were centrifuged. The supernatants were collected and analyzed by HPLC-MS/MS. The HPLC tests included a binary LC pump with an autosampler, a C18 column (2×20 mm), and gradient elution. The HPLC conditions were adjusted when necessary.
(§4) A control sample (n=2) was prepared from the spiked protein matrix in the same manner; however, no dialysis was performed on the control. It is noted that the control sample served as the bases for the recovery determination.
(§5) Acebutolol, quinidine, and warfarin were used in each assay as reference compounds, wherein it is known that those reference compounds provide low, medium and high human plasma protein binding values, respectively.
(§6) The % of the tested compound that is bound to proteins and the recovery values were calculated as follows:
(§7) Protein binding (%)=100×(Areap−Areab)/Areap
(§8) Recovery (%)=100×(Areap−Areab)/Areac
(§9) The determination of the recovery % serves as an indicator of reliability of the calculated protein binding value. […] This is most likely due to non-specific binding or degradation of the test compound. It is noted that a recovery of above 60% is considered to be reliable, while under 60% recovery, the results of the test are considered to be unreliable.

human plasma = assay: Protein binding, equilibrium dialysis method; assay type: in vitro ADME; details: 1.0E-05M; 37° C., 4 h
Protocol: as §1, §2, §3, §4, §5, §6, §7, §8, §9

[3] = In-vitro absorption, Caco-2 A-B permeability; assay type: in vitro ADME, human; details: human, Caco-2, pH 7.4, Caco-2 A-B, without verapamil; for Papp A→B at 60 min, 10 μM: 1.0E−05M
Protocol: (§10) Conditions may be adjusted when necessary.
(§11) D denotes donor and R is receiver. […] V is the volume of the donor or receiver.
(§12) The test was performed with and without verapamil, which is a permeation inhibitor, and the results are presented in Tables 22 (without verapamil) and 34 (with verapamil).

P-gp = assay: In-vitro absorption, Caco-2 A-B permeability; assay type: in vitro ADME, human; details: human, Caco-2, pH 7.4, with verapamil 100 μM on both the A and B sides, Caco-2 A-B, in the presence of verapamil
Protocol: as §10, §11, §12

in vitro = details: human
Protocol: Caco-2 cells are human intestinal epithelial cells derived from a colorectal adenocarcinoma.
The assays are performed in both the apical to basolateral (A-B) and the B-A direction. The test compound is prepared at 10 μM in HBSS-HEPES (pH 7.4) with a final DMSO concentration of 1%. The working solution is centrifuged, and the supernatant is added to the donor side. The assay plate is incubated at 37° C. with gentle shaking for 60 min or 40 min for the A-B or B-A assay, respectively. For Pgp substrate assessment, the assays are run with and without 100 μM verapamil on both the A and B sides. For BCRP substrate assessment, the assays are run with and without 10 μM Ko143 on both the A and B sides. For MRP2 substrate assessment, the assays are run with and without 100 μM MK571 on both the A and B sides. Samples are aliquoted from the donor side at time zero and the end point, and from the receiver side at the end point.
Propranolol (highly permeable), labetalol (moderately permeable), ranitidine (poorly permeable), and colchicine (P-glycoprotein substrate), estrone-3-sulfate (BCRP substrate), or CDCF (MRP2 substrate) are included in each assay.
Samples are analyzed by HPLC-MS/MS using selected reaction monitoring. The HPLC system consists of a binary LC pump with an autosampler, a C-18 column, and a gradient. Conditions may be adjusted when necessary.
Fluorescein permeability is assessed in the A-B direction at pH 7.4 on both sides after the permeability assay with the test compound. The cell monolayer with a fluorescein permeability of less than 1.5×10−6 cm/s is considered intact.
The apparent permeability coefficient (Papp) of the test compound and its recovery are calculated as follows: […]
A is the surface area of the cell monolayer (0.11 cm^2). C is concentration of the test compound, expressed as peak area. D denotes donor and R is receiver. 0, mid, and end denote time zero, mid-point, and end of the incubation. Δt is the incubation time. V is the volume of the donor or receiver.
The permeability capabilities of the several LDAA compounds, in their TFA salt form, were determined using the Caco-2 B-A method.

[4] = read-out: Percent Recovery Mean
[5] = Caco-2, pH 7.4, Percent Recovery 1st
[6] = Caco-2, pH 7.4, Percent Recovery 2nd
[7] = Caco-2, pH 7.4, Percent Recovery Mean
[8] = Caco-2, pH 7.4, Permeability 1st
[9] = Caco-2, pH 7.4, Permeability 2nd
[10] = Caco-2, pH 7.4, Permeability Mean

SMILES	Ke [1]	recovery at 4 h, 10 μM ([2]; read-out: % Recovery 1st)	recovery at 4 h, 10 μM ([2]; read-out: % Recovery 2nd)	recovery at 4 h, 10 μM ([2]; read-out: % Recovery Mean)	% Protein Bound 1st (human plasma)	% Protein Bound 2nd (human plasma)	Papp A→B at 60 min, 10 μM ([3]; read-out: Permeability 1st)	Papp A→B at 60 min, 10 μM ([3]; read-out: Permeability 2nd)	recovery at 60 min, 10 μM ([3]; read-out: Percent Recovery 1st)	recovery at 60 min, 10 μM ([3]; read-out: Percent Recovery 2nd)	recovery at 60 min, 10 μM [3, 4]	recovery at 60 min, 10 μM (P-gp; read-out: Percent Recovery 1st)	recovery at 60 min, 10 μM (P-gp; read-out: Percent Recovery 2nd)	recovery at 60 min, 10 μM (P-gp; [4])	recovery at 40 min, 10 μM (in vitro; [5])	recovery at 40 min, 10 μM (in vitro; [6])	recovery at 40 min, 10 μM (in vitro; [7])	Papp B→A at 40 min, 10 μM (in vitro; [8])	Papp B→A at 40 min, 10 μM (in vitro; [9])	Papp B→A at 40 min, 10 μM (in vitro; [10])	also measured
N[C@@H](Cc1ccc(O)c(O)c1)C(=O)N[C@@H](CC(=O)O)C(=O)O [LD-Asp TFA salt, Levodopa Aspartic Acid] (H-[Dopa]-Asp-OH)	0.0008	105%	108%	107%	99.1%	99.4%															% Protein Bound Mean (human plasma): 99%
NC(=O)C[C@H](NC(=O)[C@@H](N)Cc1ccc(O)c(O)c1)C(=O)O [LD-Asn TFA salt, Levodopa Asparagine TFA Salt] (H-[Dopa]-Asn-OH)	0.0015						0.6 ×10⁻⁶ cm/s	0.47 ×10⁻⁶ cm/s	62%	78%	70%	65%	62%	63%	85%	84%	85%	0.42 ×10⁻⁶ cm/s	0.39 ×10⁻⁶ cm/s	0.4 ×10⁻⁶ cm/s	Papp A→B at 60 min, 10 μM ([3]; read-out: Permeability Mean): 0.5 ×10⁻⁶ cm/s
N[C@@H](Cc1ccc(O)c(O)c1)C(=O)N[C@@H](Cc1ccc(O)cc1)C(=O)O [LD-Tyr TFA salt, Levodopa Tyrosine TFA Salt] (H-[Dopa]-Tyr-OH)	0.0217						0.05 ×10⁻⁶ cm/s	0.04 ×10⁻⁶ cm/s	45%	39%	42%	40%	39%	40%	82%	97%	89%	0.01 ×10⁻⁶ cm/s	0.01 ×10⁻⁶ cm/s	< 0.01 ×10⁻⁶ cm/s	metabolism in human liver S9 (in words) [1]: rapidly metabolized
N=C(N)NCCC[C@H](NC(=O)[C@@H](N)Cc1ccc(O)c(O)c1)C(=O)O [LD-Arg TFA salt, Levodopa Arginine TFA Salt]	0.1268	6%	5%	6%	44.1%	26.4%	0.1 ×10⁻⁶ cm/s	0.09 ×10⁻⁶ cm/s	26%	26%	26%	25%	26%	25%	82%	89%	85%	0.03 ×10⁻⁶ cm/s	0.02 ×10⁻⁶ cm/s	< 0.03 ×10⁻⁶ cm/s	metabolism in human liver S9 (in words) [1]: rapidly metabolized; % Protein Bound Mean (human plasma): 35%; Papp A→B at 60 min, 10 μM ([3]; read-out: Permeability Mean): < 0.1 ×10⁻⁶ cm/s
NCCCC[C@H](NC(=O)[C@@H](N)Cc1ccc(O)c(O)c1)C(=O)O [LD-Lys TFA salt, Levodopa Lysine TFA Salt] (H-[Dopa]-Lys-OH)	0.0788	12%	19%	16%	59.5%	53.1%	0.12 ×10⁻⁶ cm/s	0.09 ×10⁻⁶ cm/s	21%	38%	30%	33%	33%	33%	79%	86%	82%	0.03 ×10⁻⁶ cm/s	0.03 ×10⁻⁶ cm/s	< 0.03 ×10⁻⁶ cm/s	metabolism in human liver S9 (in words) [1]: rapidly metabolized; % Protein Bound Mean (human plasma): 56%; Papp A→B at 60 min, 10 μM ([3]; read-out: Permeability Mean): < 0.1 ×10⁻⁶ cm/s
